Test results reported in ChEMBL document CHEMBL1131280, “(2S,4S)-amino-4-(2,2-diphenylethyl)pentanedioic acid selective group 2 metabotropic glutamate receptor antagonist” (Bioorg Med Chem Lett, 1998).

Experiments:
[1] = Inhibitory activity towards group 2 metabotropic glutamate receptor by displacement of ACPD-sensitive [3H]- glutamate in rat forebrain membrane; format: cell membranes
[2] = biological target: Glutamate receptor ionotropic, AMPA (Rattus norvegicus, UniProt P19490+P19491+P19492+P19493); assay: Binding affinity against Ionotropic glutamate receptor using [3H]-AMPA displacement from rat forebrain preparations
[3] = biological target: Glutamate receptor ionotropic, kainate; assay: Binding affinity against Ionotropic glutamate receptor using [3H]-Kainate displacement from rat forebrain preparations
[4] = biological target: Glutamate receptor ionotropic, kainate 3 (Rattus norvegicus, UniProt P42264); assay: Binding affinity against Ionotropic glutamate receptor using ACPD sensitive [3H]- glutamate displacement from rat forebrain preparations
Sequence of Glutamate receptor ionotropic, kainate 3 (P42264 whole entry): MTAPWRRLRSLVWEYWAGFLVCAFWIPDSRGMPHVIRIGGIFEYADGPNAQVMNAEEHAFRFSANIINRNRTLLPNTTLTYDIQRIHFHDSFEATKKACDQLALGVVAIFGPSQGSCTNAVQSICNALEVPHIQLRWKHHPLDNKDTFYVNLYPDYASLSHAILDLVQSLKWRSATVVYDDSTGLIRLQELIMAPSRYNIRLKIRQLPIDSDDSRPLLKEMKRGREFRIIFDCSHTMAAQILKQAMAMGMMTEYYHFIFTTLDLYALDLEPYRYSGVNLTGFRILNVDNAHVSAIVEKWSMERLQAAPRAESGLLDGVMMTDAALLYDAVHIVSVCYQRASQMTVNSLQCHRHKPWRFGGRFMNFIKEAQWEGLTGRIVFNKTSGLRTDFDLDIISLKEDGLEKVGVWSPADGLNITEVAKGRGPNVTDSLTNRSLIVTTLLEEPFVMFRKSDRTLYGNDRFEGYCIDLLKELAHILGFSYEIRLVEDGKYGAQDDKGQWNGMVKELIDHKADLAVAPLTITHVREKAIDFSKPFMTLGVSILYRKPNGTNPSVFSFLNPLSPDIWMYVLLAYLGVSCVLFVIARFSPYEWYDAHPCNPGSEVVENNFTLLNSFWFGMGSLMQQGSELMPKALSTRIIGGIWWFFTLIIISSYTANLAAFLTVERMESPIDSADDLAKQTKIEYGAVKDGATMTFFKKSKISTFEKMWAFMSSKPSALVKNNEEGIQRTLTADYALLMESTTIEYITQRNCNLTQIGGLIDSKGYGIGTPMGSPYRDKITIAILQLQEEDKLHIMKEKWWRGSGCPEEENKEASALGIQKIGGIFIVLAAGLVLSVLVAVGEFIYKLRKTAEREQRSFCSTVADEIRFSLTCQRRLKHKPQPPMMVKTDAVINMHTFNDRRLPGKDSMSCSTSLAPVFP

[5] = biological target: Metabotropic glutamate receptor 1 (Homo sapiens, UniProt Q13255); assay: Tested for […] in non-neuronal cells (RGT) expressing human Metabotropic glutamate receptor 1 by measuring ACPD (100 uM)-stimulated phosphoinositide hydrolysis; format: functional, cell-based
[6] = biological target: Metabotropic glutamate receptor 8 (Homo sapiens, UniProt O00222); assay: Tested for […] in non-neuronal cells (RGT) expressing human Metabotropic glutamate receptor 8 by measuring L-AP4 (0.3 uM of forskolin) (15 uM)-stimulated cAMP formation; format: functional, cell-based
Sequence of Metabotropic glutamate receptor 8 (O00222 whole entry): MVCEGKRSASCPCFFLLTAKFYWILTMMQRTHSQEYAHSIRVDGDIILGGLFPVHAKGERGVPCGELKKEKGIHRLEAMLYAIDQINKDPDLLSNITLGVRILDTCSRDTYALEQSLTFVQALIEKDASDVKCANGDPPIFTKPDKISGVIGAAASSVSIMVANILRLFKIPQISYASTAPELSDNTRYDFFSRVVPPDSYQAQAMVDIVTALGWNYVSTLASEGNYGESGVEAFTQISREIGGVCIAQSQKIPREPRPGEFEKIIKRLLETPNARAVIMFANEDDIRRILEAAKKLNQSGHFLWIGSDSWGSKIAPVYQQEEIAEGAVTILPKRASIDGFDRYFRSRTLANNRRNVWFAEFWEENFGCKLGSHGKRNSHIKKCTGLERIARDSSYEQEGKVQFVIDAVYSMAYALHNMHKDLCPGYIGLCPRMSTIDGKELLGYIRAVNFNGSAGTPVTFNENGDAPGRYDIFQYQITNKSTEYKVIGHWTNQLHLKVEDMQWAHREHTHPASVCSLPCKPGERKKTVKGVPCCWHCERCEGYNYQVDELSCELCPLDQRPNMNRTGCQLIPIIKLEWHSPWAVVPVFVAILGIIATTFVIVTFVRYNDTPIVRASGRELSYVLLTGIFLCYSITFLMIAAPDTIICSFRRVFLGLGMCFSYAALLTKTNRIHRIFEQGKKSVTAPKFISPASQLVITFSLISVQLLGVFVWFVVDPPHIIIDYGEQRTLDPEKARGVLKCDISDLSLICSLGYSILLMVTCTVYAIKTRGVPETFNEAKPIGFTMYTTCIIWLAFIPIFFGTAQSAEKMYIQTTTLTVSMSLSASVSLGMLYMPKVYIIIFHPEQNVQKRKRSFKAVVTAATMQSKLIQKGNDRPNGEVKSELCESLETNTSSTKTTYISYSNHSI

[7] = biological target: Metabotropic glutamate receptor 5 (Homo sapiens, UniProt P41594); assay: Tested for […] in non-neuronal cells (RGT) expressing human Metabotropic glutamate receptor 5 by measuring ACPD (100 uM)-stimulated phosphoinositide hydrolysis; format: functional, cell-based
[8] = biological target: Metabotropic glutamate receptor 4 (Homo sapiens, UniProt Q14833); assay: Tested for […] in non-neuronal cells (RGT) expressing human Metabotropic glutamate receptor 4 by measuring L-AP4 (3 uM) induced inhibition of forskolin (15 uM)-stimulated cAMP formation; format: functional, cell-based
[9] = biological target: Metabotropic glutamate receptor 3 (Homo sapiens, UniProt Q14832); assay: Tested for […] in non-neuronal cells (RGT) expressing human Metabotropic glutamate receptor 3 by measuring ACPD (3 uM) induced inhibition of forskolin (15 uM)-stimulated cAMP formation; format: functional, cell-based
Sequence of Metabotropic glutamate receptor 3 (Q14832 whole entry): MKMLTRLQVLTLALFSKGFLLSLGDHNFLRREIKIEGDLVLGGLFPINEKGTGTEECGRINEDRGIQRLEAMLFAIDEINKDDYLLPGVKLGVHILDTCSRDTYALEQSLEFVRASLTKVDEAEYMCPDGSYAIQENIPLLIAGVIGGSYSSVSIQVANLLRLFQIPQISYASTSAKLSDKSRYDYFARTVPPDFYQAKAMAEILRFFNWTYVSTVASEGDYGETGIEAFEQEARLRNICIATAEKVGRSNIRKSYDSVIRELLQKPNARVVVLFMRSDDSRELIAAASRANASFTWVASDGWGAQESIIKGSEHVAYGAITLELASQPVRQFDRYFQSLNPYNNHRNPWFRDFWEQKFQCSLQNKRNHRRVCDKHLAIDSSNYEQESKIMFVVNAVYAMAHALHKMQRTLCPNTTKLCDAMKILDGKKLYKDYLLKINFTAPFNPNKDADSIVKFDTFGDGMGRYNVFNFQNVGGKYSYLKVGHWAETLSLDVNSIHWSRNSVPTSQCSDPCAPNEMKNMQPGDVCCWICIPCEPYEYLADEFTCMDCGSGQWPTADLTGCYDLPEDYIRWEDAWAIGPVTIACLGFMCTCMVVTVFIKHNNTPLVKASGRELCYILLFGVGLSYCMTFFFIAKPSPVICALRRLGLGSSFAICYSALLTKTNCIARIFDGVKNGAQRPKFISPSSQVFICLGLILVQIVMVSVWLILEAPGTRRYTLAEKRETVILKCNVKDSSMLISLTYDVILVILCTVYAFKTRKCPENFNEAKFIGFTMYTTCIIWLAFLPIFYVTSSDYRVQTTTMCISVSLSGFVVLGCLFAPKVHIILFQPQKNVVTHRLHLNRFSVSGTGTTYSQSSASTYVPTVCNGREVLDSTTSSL

[10] = biological target: Metabotropic glutamate receptor 2 (Homo sapiens, UniProt Q14416); assay: Tested for […] in non-neuronal cells (RGT) expressing human Metabotropic glutamate receptor 2 by measuring ACPD (3 uM) induced inhibition of forskolin (15 uM)-stimulated cAMP formation; format: functional, cell-based
Sequence of Metabotropic glutamate receptor 2 (Q14416 whole entry): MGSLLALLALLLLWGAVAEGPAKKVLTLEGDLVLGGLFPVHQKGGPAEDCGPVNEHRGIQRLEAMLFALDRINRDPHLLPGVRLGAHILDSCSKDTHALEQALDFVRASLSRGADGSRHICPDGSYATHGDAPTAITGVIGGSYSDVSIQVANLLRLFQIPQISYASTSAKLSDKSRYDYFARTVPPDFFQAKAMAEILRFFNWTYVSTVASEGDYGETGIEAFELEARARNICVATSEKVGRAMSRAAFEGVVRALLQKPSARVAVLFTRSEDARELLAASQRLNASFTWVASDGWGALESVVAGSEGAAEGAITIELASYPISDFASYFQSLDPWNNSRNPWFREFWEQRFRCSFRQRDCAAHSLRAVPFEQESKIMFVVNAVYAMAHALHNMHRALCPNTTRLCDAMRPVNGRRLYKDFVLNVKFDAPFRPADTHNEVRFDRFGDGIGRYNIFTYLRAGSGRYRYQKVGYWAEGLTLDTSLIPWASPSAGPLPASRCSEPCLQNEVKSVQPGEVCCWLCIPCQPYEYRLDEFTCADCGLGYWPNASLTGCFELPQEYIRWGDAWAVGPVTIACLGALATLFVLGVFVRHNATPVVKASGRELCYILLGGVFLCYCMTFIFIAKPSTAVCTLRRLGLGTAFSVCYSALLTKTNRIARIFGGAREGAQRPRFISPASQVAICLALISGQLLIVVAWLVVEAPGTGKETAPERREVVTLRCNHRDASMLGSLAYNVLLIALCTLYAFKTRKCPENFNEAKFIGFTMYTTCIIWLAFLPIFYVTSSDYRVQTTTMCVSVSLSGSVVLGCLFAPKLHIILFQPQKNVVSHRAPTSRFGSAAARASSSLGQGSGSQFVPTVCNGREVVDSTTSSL

[11] = biological target: Metabotropic glutamate receptor 7 (Homo sapiens, UniProt Q14831); assay: Tested for […] in non-neuronal cells (RGT) expressing human mGlu7a receptor by measuring L-AP4 (1000 uM of forskolin (15 uM)-stimulated cAMP formation; format: functional, cell-based
Sequence of Metabotropic glutamate receptor 7 (Q14831 whole entry): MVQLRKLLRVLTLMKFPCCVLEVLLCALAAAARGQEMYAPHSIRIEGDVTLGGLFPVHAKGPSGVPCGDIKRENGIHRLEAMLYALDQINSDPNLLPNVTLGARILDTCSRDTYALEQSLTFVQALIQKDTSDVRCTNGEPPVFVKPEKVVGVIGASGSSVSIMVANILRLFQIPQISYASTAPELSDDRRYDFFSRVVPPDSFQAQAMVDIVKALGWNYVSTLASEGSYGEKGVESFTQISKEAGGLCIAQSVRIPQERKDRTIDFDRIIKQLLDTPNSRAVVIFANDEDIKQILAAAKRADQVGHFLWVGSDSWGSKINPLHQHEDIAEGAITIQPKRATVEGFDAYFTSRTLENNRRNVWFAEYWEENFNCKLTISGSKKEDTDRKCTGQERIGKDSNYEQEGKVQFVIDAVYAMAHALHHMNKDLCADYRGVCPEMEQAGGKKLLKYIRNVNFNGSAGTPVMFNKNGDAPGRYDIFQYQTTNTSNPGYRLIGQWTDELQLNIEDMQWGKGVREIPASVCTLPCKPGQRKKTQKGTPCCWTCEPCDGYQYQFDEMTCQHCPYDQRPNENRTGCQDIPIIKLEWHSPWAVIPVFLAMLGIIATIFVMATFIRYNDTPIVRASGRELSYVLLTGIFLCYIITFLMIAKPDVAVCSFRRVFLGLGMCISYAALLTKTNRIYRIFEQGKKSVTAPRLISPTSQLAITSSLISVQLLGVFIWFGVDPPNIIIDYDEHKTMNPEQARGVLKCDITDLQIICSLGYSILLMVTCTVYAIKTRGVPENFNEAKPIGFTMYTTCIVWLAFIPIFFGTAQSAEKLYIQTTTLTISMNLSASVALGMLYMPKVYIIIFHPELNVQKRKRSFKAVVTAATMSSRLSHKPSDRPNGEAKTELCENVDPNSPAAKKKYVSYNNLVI

Work on `N[C@@H](C[C@H](CCCCc1ccccc1)C(=O)O)C(=O)O` yielded an IC50 [1] of 4.69 µM.

Work on `Cc1ccc(C[C@@H](C[C@H](N)C(=O)O)C(=O)O)cc1` yielded an IC50 [1] of 4.6 µM.

In the case of `N[C@@H](C[C@@H](Cc1ccc2ccccc2c1)C(=O)O)C(=O)O` (single isomer, unassigned), the IC50 [1] is reported as 8.82 µM.

`N[C@@H](C[C@H](Cc1ccccc1)C(=O)O)C(=O)O` showed an IC50 [1] of 8.99 µM.

In the case of `N[C@@H](C[C@H](Cc1ccc(C(F)(F)F)cc1)C(=O)O)C(=O)O`, the IC50 [1] is reported as 3.16 µM.

`N[C@@H](C[C@@H](CCCc1ccccc1)C(=O)O)C(=O)O` showed an IC50 [1] of 21.1 µM.

For `N[C@@H](C[C@H](CCc1ccccc1)C(=O)O)C(=O)O`, the IC50 [1] was 4.65 µM.

For `N[C@@H](C[C@H](CCCCC(c1ccccc1)c1ccccc1)C(=O)O)C(=O)O`, the IC50 [1] was 3.4 µM.

`N[C@@H](C[C@H](Cc1ccc2ccccc2c1)C(=O)O)C(=O)O` gave an IC50 [1] of 3.33 µM.

For `N[C@@H](C[C@H](CC1CCC(c2ccccc2)CC1)C(=O)O)C(=O)O` (some centres not stated), the IC50 [1] was 3.2 µM.

`N[C@@H](C[C@H](CCCCCc1ccccc1)C(=O)O)C(=O)O` gave an IC50 [1] of 2.49 µM.

In the case of `N[C@@H](C[C@H](CC(c1ccccc1)c1ccccc1)C(=O)O)C(=O)O`, the IC50 [2] is reported as greater than 100 µM, the IC50 [3] is reported as greater than 100 µM and the IC50 [4] is reported as 0.38 µM. It also gave an IC50 [5] greater than 300 µM, an IC50 [6] greater than 300 µM and an IC50 [7] greater than 300 µM. The IC50 [8] was greater than 300 µM, the IC50 [9] was 6.1 µM and the IC50 [10] was 18 µM. The IC50 [11] was greater than 300 µM.

`N[C@@H](C[C@@H](CCCCc1ccccc1)C(=O)O)C(=O)O` gave an IC50 [1] greater than 100 µM.

For `COc1cccc(C[C@@H](C[C@H](N)C(=O)O)C(=O)O)c1`, the IC50 [1] was 9.28 µM.

Work on `N[C@@H](C[C@@H](Cc1ccc(C(F)(F)F)cc1)C(=O)O)C(=O)O` (single isomer, unassigned) yielded an IC50 [1] greater than 100 µM.

`N[C@@H](C[C@H](CC1CCC(c2ccccc2)(c2ccccc2)CC1)C(=O)O)C(=O)O` gave an IC50 [1] of 1.4 µM.

In the case of `N[C@@H](C[C@H](CCCC(c1ccccc1)c1ccccc1)C(=O)O)C(=O)O`, the IC50 [2] is reported as greater than 100 µM, the IC50 [5] is reported as greater than 300 µM and the IC50 [6] is reported as greater than 300 µM. It also gave an IC50 [7] greater than 300 µM, an IC50 [8] greater than 300 µM and an IC50 [9] of 30 µM. The IC50 [10] was 50 µM and the IC50 [11] was greater than 300 µM.

In the case of `N[C@@H](C[C@H](CCCc1ccccc1)C(=O)O)C(=O)O`, the IC50 [2] is reported as 34 µM, the IC50 [3] is reported as 9.2 µM and the IC50 [4] is reported as 1.84 µM. For the same molecule, the IC50 [1] was 1.84 µM.

With `N[C@@H](C[C@@H](CCc1ccccc1)C(=O)O)C(=O)O` (single isomer, unassigned) the IC50 [1] was 14.5 µM.

In the case of `Cc1ccc(C[C@H](C[C@H](N)C(=O)O)C(=O)O)cc1` (single isomer, unassigned), the IC50 [1] is reported as 7.85 µM.

`N[C@@H](C[C@H](CCC(c1ccccc1)c1ccccc1)C(=O)O)C(=O)O` gave an IC50 [2] of 14.5 µM, an IC50 [3] of 39.3 µM and an IC50 [4] of 1.16 µM.
